Data reported in US11339171B2, “MDM2 inhibitors” (Gan & Lee Pharmaceuticals, priority 2017, dated 2022).
Several values for one entry are separate records, joined by “and”; a condition that tells them apart may be missing. Equal entries are not always repeated. Where two headings read alike, the source gives them in different places.

Experiments:
MDM2 = molecular target: T1, MDM2 (Homo sapiens, UniProt Q00987); assay: Inhibition test of MDM2-P53 (GST-MDM2, Biotin-P53, Anti-GST-Tb, SA-XL665); assay type: binding
T1 construct: made in house
T1 sequence (Q00987 whole entry): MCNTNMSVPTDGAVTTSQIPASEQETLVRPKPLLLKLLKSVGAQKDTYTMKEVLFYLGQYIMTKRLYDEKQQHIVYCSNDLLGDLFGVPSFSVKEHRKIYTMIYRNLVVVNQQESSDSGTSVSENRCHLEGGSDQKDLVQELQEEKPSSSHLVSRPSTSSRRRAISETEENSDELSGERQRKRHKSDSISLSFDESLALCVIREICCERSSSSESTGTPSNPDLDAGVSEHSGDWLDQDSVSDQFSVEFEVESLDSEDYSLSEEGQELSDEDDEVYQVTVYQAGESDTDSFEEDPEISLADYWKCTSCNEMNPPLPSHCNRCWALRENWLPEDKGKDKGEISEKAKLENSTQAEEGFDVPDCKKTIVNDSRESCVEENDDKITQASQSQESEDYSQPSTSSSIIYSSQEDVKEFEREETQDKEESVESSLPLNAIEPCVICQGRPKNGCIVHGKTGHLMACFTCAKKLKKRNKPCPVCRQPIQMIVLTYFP
Method in brief: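 Compounds, serially diluted 5-fold (twelve concentrations), were shaken for 90 min at 25° C with a mix of GST-MDM2 (4 nM final), Biotin-P53, anti-GST-Tb and SA-XL665. Buffer: 1×PBS, 0.1% BSA, 5 mM DTT, 1 mM AEBSF; signal read on a microplate reader.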

[1] = Pharmacokinetics in ICR mice after intravenous and intragastric administration; assay type: in vivo; details: for Vd: read-out: Vz; for MRT last: read-out: MRT(0-t); for MRT inf: read-out: MRT(0-∞)
Method in brief: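 Plasma concentrations by LC-MS/MS (range 1 to 2000 ng/ml) following single intravenous (2 mg/kg) or oral gavage (5 mg/kg) dosing of fasted male ICR mice, three per group. Vehicle 5% DMSO + 40% PEG400 + 55% (10% HP-β-CD in saline); standard PK parameters including bioavailability calculated.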

[2] = tested on: human osteosarcoma cell line SJSA-1; assay: Inhibition of proliferation of human osteosarcoma cell line SJSA-1 (DAPI staining, In Cell Analyzer); details: Homo sapiens, SJSA-1, 72 h, read-out: IC50 (nM), inhibitory activity on proliferation of human osteosarcoma cell line SJSA-1, SJSA-1, incubated 72 h
[3] = ICR mice, IV 2 mg/kg, individual animal, 2 mg/kg
[4] = ICR mice, PO 5 mg/kg, individual animal, 5 mg/kg
[5] = male, ICR, mouse, plasma, iv, 2 mg/kg, ICR mice, IV 2 mg/kg, individual animal, read-out: Cmax
[6] = male, ICR, mouse, plasma, iv, 2 mg/kg, ICR mice, IV 2 mg/kg, individual animal, read-out: Tmax
[7] = male, ICR, mouse, plasma, iv, 2 mg/kg, ICR mice, IV 2 mg/kg, individual animal
[8] = male, ICR, mouse, plasma, iv, 2 mg/kg, ICR mice, IV 2 mg/kg, mean of 3 animals
[9] = male, ICR, mouse, plasma, iv, 2 mg/kg, ICR mice, IV 2 mg/kg, mean of 3 animals, read-out: AUC(0-t)
[10] = male, ICR, mouse, plasma, iv, 2 mg/kg, ICR mice, IV 2 mg/kg, mean of 3 animals, read-out: Cmax
[11] = male, ICR, mouse, plasma, iv, 2 mg/kg, ICR mice, IV 2 mg/kg, mean of 3 animals, read-out: Tmax
[12] = male, ICR, mouse, plasma, iv, 2 mg/kg, ICR mice, IV 2 mg/kg, mean of 3 animals, read-out: t1/2 (converted)
[13] = male, ICR, mouse, plasma, po, 5 mg/kg, ICR mice, PO 5 mg/kg, individual animal
[14] = male, ICR, mouse, plasma, po, 5 mg/kg, ICR mice, PO 5 mg/kg, individual animal, read-out: Tmax
[15] = male, ICR, mouse, plasma, po, 5 mg/kg, ICR mice, PO 5 mg/kg, individual animal, read-out: t1/2 (converted)
[16] = male, ICR, mouse, plasma, po, 5 mg/kg, ICR mice, PO 5 mg/kg, mean of 3 animals
[17] = male, ICR, mouse, plasma, po, 5 mg/kg, ICR mice, PO 5 mg/kg, mean of 3 animals, read-out: AUC(0-t)
[18] = male, ICR, mouse, plasma, po, 5 mg/kg, ICR mice, PO 5 mg/kg, mean of 3 animals, read-out: Cmax
[19] = male, ICR, mouse, plasma, po, 5 mg/kg, ICR mice, PO 5 mg/kg, mean of 3 animals, read-out: Tmax
[20] = male, ICR, mouse, plasma, po, 5 mg/kg, ICR mice, PO 5 mg/kg, mean of 3 animals, read-out: t1/2 (converted)
[21] = male, ICR, mouse, plasma, po, 5 mg/kg, oral intragastric administration 5 mg/kg, read-out: AUC0-t
[22] = male, ICR, mouse, plasma, po, 5 mg/kg, oral intragastric administration 5 mg/kg, read-out: half-life (converted)
[23] = male, mouse, plasma, ICR mice, PO 5 mg/kg vs IV 2 mg/kg, from mean values, read-out: F* (bioavailability)

Q: Which IC50 (MDM2) does the source give for `CCOc1cc(OC)c(-c2nc3c(n2C(C)C)[C@@]2(C(=O)Nc4cc(Cl)ccc42)N(c2cc(Cl)cnc2C)C3=O)cn1` [Example S-96, (S)-6-chloro-5′-(5-chloro-2-methylpyridin-3-yl)-2′-(6-ethoxy-4-methoxypyridin-3-yl)-3′-isopropyl-3′H-spiro[dihydroindole-3,4′-pyrrolo[3,4-d]imidazole]-2,6′(5′H)-dione] here?
A: 0.00104 µM

Q: What about the “AUC(0-t)” value [1, 3] of the same compound?
A: 3109.78 ng·h/mL and 3206.41 ng·h/mL and 6719.85 ng·h/mL

Q: And the “AUC(0-∞)” value [1, 3]?
A: 3157.25 ng·h/mL and 3250.65 ng·h/mL and 6815.93 ng·h/mL

Q: What about the CL [1, 3] of the same compound?
A: 10.56 mL/min/kg and 10.25 mL/min/kg and 4.89 mL/min/kg

Q: What about the Cmax [1, 3] of the same compound?
A: 3353.43 ng/mL and 3438.41 ng/mL

Q: And the “MRT(0-t)” value [1, 3]?
A: 0.90 h and 2.62 h

Q: What about the “MRT(0-∞)” value [1, 3] of the same compound?
A: 1.00 h and 0.99 h and 2.99 h

Q: What about the Vz [1, 3] of the same compound?
A: 0.95 L/kg and 1.42 L/kg

Q: What about the t1/2 [1, 3] of the same compound?
A: 0.93 h and 1.07 h and 3.36 h

Q: And the “AUC(0-t)” value [1, 4]?
A: 6327.28 ng·h/mL and 6993.90 ng·h/mL and 13010.63 ng·h/mL

Q: What about the “AUC(0-∞)” value [1, 4] of the same compound?
A: 6705.00 ng·h/mL and 7471.54 ng·h/mL and 15115.19 ng·h/mL

Q: What about the Cmax [1, 4] of the same compound?
A: 3921.65 ng/mL and 2400.19 ng/mL and 5236.64 ng/mL

Q: What about the “MRT(0-t)” value [1, 4] of the same compound?
A: 2.42 h and 2.30 h

Q: And the “MRT(0-∞)” value [1, 4]?
A: 2.97 h and 3.61 h

Q: And the Tmax [1, 4]?
A: 0.50 h

Q: And the t1/2 [1, 4]?
A: 2.06 h and 2.58 h

Q: What about the Cmax [1, 5] of the same compound?
A: 2980 ng/mL

Q: What about the Tmax [1, 6] of the same compound?
A: 0.08 h

Q: And the Vd [1, 7]?
A: 0.85 L/kg

Q: And the AUC(0-inf) [1, 8]?
A: 4410 ng·h/mL

Q: And the clearance [1, 8]?
A: 8.57 mL/min/kg

Q: What about the AUC(0-t) [1, 9] of the same compound?
A: 4350 ng·h/mL

Q: And the Cmax [1, 10]?
A: 3260 ng/mL

Q: And the MRT last [1, 8]?
A: 1.47 h

Q: What about the MRT inf [1, 8] of the same compound?
A: 1.66 h

Q: What about the Tmax [1, 11] of the same compound?
A: 0.083 h

Q: And the Vd [1, 8]?
A: 1.07 L/kg

Q: What about the half-life [1, 12] of the same compound?
A: 1.79 h

Q: What about the MRT last [1, 13] of the same compound?
A: 1.66 h

Q: And the MRT inf [1, 13]?
A: 2.15 h

Q: What about the Tmax [1, 14] of the same compound?
A: 0.25 h

Q: And the half-life [1, 15]?
A: 1.69 h

Q: What about the AUC(0-inf) [1, 16] of the same compound?
A: 9760 ng·h/mL

Q: What about the AUC(0-t) [1, 17] of the same compound?
A: 8780 ng·h/mL

Q: And the Cmax [1, 18]?
A: 3850 ng/mL

Q: What about the MRT last [1, 16] of the same compound?
A: 2.13 h

Q: What about the MRT inf [1, 16] of the same compound?
A: 2.91 h

Q: What about the Tmax [1, 19] of the same compound?
A: 0.42 h

Q: And the half-life [1, 20]?
A: 2.11 h

Q: And the AUC(0-t) [1, 21]?
A: 8780 ng·h/mL

Q: What about the half-life [1, 22] of the same compound?
A: 2.11 h

Q: What about the bioavailability [1, 23] of the same compound?
A: 80.8%

Q: What about the IC50 [2] of the same compound?
A: 25.3 nM

Q: With `CCOc1cc(OC)c(-c2nc3c(n2C(C)C)[C@@]2(C(=O)Nc4cc(Cl)ccc42)N(c2cc(Cl)ccc2F)C3=O)cn1` [Example S-98, (S)-6-chloro-5′-(5-chloro-2-fluorophenyl)-2′-(6-ethoxy-4-methoxypyridin-3-yl)-3′-isopropyl-3′H-spiro[dihydroindole-3,4′-pyrrolo[3,4-d]imidazole]-2,6′(5′H)-dione] as the compound, how does the IC50 (MDM2) read?
A: 0.00127 µM

Q: And the “AUC(0-t)” value [1, 3]?
A: 8869.53 ng·h/mL and 11177.15 ng·h/mL

Q: What about the “AUC(0-∞)” value [1, 3] of the same compound?
A: 9108.92 ng·h/mL and 12596.27 ng·h/mL

Q: And the CL [1, 3]?
A: 3.66 mL/min/kg and 2.65 mL/min/kg

Q: And the Cmax [1, 3]?
A: 3789.06 ng/mL and 3405.07 ng/mL

Q: What about the “MRT(0-t)” value [1, 3] of the same compound?
A: 1.43 h and 1.82 h

Q: And the “MRT(0-∞)” value [1, 3]?
A: 1.60 h and 2.60 h

Q: What about the Vz [1, 3] of the same compound?
A: 0.37 L/kg and 0.44 L/kg

Q: What about the t1/2 [1, 3] of the same compound?
A: 1.17 h and 1.93 h

Q: What about the “AUC(0-t)” value [1, 4] of the same compound?
A: 37288.31 ng·h/mL and 18064.52 ng·h/mL and 23330.62 ng·h/mL

Q: And the “AUC(0-∞)” value [1, 4]?
A: 19691.36 ng·h/mL and 23352.18 ng·h/mL

Q: And the Cmax [1, 4]?
A: 3420.72 ng/mL and 2943.86 ng/mL

Q: And the “MRT(0-t)” value [1, 4]?
A: 3.17 h and 4.72 h

Q: What about the “MRT(0-∞)” value [1, 4] of the same compound?
A: 3.82 h and 4.74 h

Q: And the Tmax [1, 4]?
A: 2.00 h

Q: What about the t1/2 [1, 4] of the same compound?
A: 2.12 h and 2.30 h

Q: And the AUC(0-inf) [1, 7]?
A: 10500 ng·h/mL

Q: What about the clearance [1, 7] of the same compound?
A: 3.16 mL/min/kg

Q: What about the AUC(0-t) ([1]; male, ICR, mouse, plasma, iv, 2 mg/kg, ICR mice, IV 2 mg/kg, individual animal, read-out: AUC(0-t)) of the same compound?
A: 10000 ng·h/mL

Q: And the Cmax [1, 5]?
A: 3670 ng/mL

Q: What about the MRT last [1, 7] of the same compound?
A: 1.55 h

Q: What about the MRT inf [1, 7] of the same compound?
A: 1.86 h

Q: What about the Tmax [1, 6] of the same compound?
A: 0.08 h

Q: What about the Vd [1, 7] of the same compound?
A: 0.39 L/kg

Q: And the half-life ([1]; male, ICR, mouse, plasma, iv, 2 mg/kg, ICR mice, IV 2 mg/kg, individual animal, read-out: t1/2 (converted))?
A: 1.43 h

Q: What about the AUC(0-inf) [1, 8] of the same compound?
A: 10700 ng·h/mL

Q: And the clearance [1, 8]?
A: 3.16 mL/min/kg

Q: What about the AUC(0-t) [1, 9] of the same compound?
A: 10000 ng·h/mL

Q: What about the Cmax [1, 10] of the same compound?
A: 3620 ng/mL

Q: What about the MRT last [1, 8] of the same compound?
A: 1.6 h

Q: And the MRT inf [1, 8]?
A: 2.02 h

Q: And the Tmax [1, 11]?
A: 0.083 h

Q: What about the Vd [1, 8] of the same compound?
A: 0.4 L/kg

Q: And the half-life [1, 12]?
A: 1.51 h

Q: What about the AUC(0-inf) [1, 13] of the same compound?
A: 37300 ng·h/mL

Q: What about the Cmax ([1]; male, ICR, mouse, plasma, po, 5 mg/kg, ICR mice, PO 5 mg/kg, individual animal, read-out: Cmax) of the same compound?
A: 3840 ng/mL

Q: And the MRT last [1, 13]?
A: 5.36 h

Q: And the MRT inf [1, 13]?
A: 5.38 h

Q: And the Tmax [1, 14]?
A: 4 h

Q: And the half-life [1, 15]?
A: 2.31 h

Q: What about the AUC(0-inf) [1, 16] of the same compound?
A: 26800 ng·h/mL

Q: What about the AUC(0-t) [1, 17] of the same compound?
A: 26200 ng·h/mL

Q: What about the Cmax [1, 18] of the same compound?
A: 3400 ng/mL

Q: What about the MRT last [1, 16] of the same compound?
A: 4.41 h

Q: And the MRT inf [1, 16]?
A: 4.65 h

Q: And the Tmax [1, 19]?
A: 2.67 h

Q: What about the half-life [1, 20] of the same compound?
A: 2.24 h

Q: And the AUC(0-t) [1, 21]?
A: 26200 ng·h/mL

Q: And the half-life [1, 22]?
A: 2.24 h

Q: And the bioavailability ([1]; male, ICR, mouse, plasma, oral intragastric administration 5 mg/kg, read-out: bioavailability)?
A: 105%

Q: And the bioavailability [1, 23]?
A: 105%

Q: What about the IC50 [2] of the same compound?
A: 56.1 nM
